Assay results published in US20090253126A1, “Biomarker Detection Assays” (ASTRAZENECA AB, priority 2004, published 2009).

Legend:
[1] = test system: Notch signal; conditions: cited from earlier work
[2] = test system: Math1 transcript; assay: Detection of Math1 transcript by quantitative real-time PCR in duodenum of treated rats; type: in vivo; conditions: at earlier time points and at lower dose; Han Wistar rats, intraperitoneally, bid for 5 days
Description: (§1) Using gene expression profiling we detected several deregulated factors that are consistent with Hes-1 KO data. We confirmed the up-regulation of ADN mRNA in intestinal tissue by DBZ and BZ treatment but not AS treatment. […] This up-regulation preceded the appearance of goblet cell metaplasia in the crypts.
(§2) Compounds with varying potency for modulating the Notch1 pathway and causing intestinal metaplasia were injected intraperitoneally into rats twice daily for 5 days at a concentration of 10 μmol/kg, 30 μmol/kg and 100 μmol/kg. A section of duodenum was taken from untreated rats and those treated with compound. Samples were immediately frozen in liquid nitrogen then placed in a freezer maintained at −80° C. for preservation. […]
(§3) Quantitative real-time PCR (QRT-PCR) was performed by creating a standard curve assaying the gene of interest at known cDNA quantities of 50 ng, 25 ng, 8.33 ng, 2.76 ng, 0.910 ng and 0.154 ng. […] Biosource International (Camarillo, Calif.) synthesized oligonucleotide primers and fluorescence resonance energy transfer (FRET) probes. […] The raw data were applied to the standard curve and quantities were extrapolated using Prism by GraphPad Software (San Diego, Calif.). These quantities were then transformed to express fold change relative to the vehicle control (VC).

[3] = test system: ADN mRNA; assay: Gene expression profiling / QRT-PCR of adipsin (ADN) mRNA in intestinal tissue of treated rats; type: in vivo; conditions: Han Wistar rats, intraperitoneally, 10, 30 and 100 μmol/kg/bid for 5 days
Description: as §1, §2, §3

C[C@H](NC(=O)Cc1cc(F)cc(F)c1)C(=O)N[C@@H]1C(=O)N(C)c2ccccc2-c2ccccc21 [DBZ]
Notch signal interruption [1]: known to interrupt the Notch signal | induction of Math1 compared with ADN [2]: markedly higher than ADN | up-regulation of ADN mRNA in intestinal tissue [3]: up-regulation
